Assay results: article PMC6478789, “A chemical toolbox for the study of bromodomains and epigenetic signaling” (Nature Communications, 2019)
Read-outs that look alike come from different tables or passages of the source.

Key:
Assay in all cases: BROMOscan ligand-binding assay
TAF1L(2) = biological target: T1, TAF1L(2) (Homo sapiens, UniProt Q8IZX4)
T1 sequence (Q8IZX4 1517-1626 limits assumed): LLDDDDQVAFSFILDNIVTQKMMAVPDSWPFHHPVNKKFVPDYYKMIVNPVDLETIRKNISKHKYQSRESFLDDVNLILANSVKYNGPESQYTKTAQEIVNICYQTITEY
Description: (§1) BROMOscan is a binding assay based on the well-known KINOMEscan technology. This assay measures the binding of a DNA-tagged bromodomain to an immobilized BRD ligand. If an inhibitor is present, it will compete with the bromodomain binding to the immobilized ligand, resulting in reduction of a quantitative PCR (qPCR) signal in a dose-dependent manner.

BRD2(2) = BRD2(2) (Homo sapiens, UniProt P25440)
Description: as §1

EP300 = biological target: T2, EP300 (Homo sapiens, UniProt Q09472)
T2 sequence (Q09472 1049-1156 limits assumed): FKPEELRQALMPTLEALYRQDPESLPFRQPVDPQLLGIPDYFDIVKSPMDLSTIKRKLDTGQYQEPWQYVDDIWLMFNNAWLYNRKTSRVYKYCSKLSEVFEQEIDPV
Description: as §1

TRIM33(PHD,BRD) = biological target: T3, TRIM33(PHD,BRD) (Homo sapiens, UniProt Q9UPN9)
T3 sequence (Q9UPN9 882-1087 limits assumed): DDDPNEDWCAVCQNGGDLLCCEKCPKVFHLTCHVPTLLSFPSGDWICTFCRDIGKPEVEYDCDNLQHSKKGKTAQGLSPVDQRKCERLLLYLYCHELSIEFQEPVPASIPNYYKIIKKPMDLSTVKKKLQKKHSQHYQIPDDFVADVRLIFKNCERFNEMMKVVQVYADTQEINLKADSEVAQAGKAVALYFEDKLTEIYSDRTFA
Description: as §1

BRD1 = biological target: T4, BRD1 (Homo sapiens, UniProt O95696)
T4 sequence (O95696 562-666 limits assumed): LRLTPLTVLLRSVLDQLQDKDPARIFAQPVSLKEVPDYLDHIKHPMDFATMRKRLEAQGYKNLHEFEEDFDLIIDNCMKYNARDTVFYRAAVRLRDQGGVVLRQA
Description: as §1

BAZ2A = biological target: T5, BAZ2A (Homo sapiens, UniProt Q9UIF9)
T5 sequence (Q9UIF9 1793-1897 limits assumed): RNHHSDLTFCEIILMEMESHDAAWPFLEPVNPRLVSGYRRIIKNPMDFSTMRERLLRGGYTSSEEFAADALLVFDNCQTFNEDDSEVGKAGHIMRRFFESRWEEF
Description: as §1

BAZ2B = biological target: T6, BAZ2B (Homo sapiens, UniProt Q9UIF8)
T6 sequence (Q9UIF8 2060-2164 limits assumed): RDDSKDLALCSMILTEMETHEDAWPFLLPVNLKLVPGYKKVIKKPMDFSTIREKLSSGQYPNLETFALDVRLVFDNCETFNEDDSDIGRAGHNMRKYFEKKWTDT
Description: as §1

BRDT(1) = BRDT(1) (Homo sapiens, UniProt Q58F21)
Description: as §1

TRIM24(PHD,BRD) = biological target: T7, TRIM24(PHD,BRD) (Homo sapiens, UniProt O15164)
T7 sequence (O15164 824-1006 limits assumed): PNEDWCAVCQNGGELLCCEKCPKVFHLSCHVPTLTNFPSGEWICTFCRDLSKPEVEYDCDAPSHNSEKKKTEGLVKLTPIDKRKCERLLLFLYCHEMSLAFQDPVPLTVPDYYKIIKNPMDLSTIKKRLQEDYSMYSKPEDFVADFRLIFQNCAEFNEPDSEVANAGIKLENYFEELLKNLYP
Description: as §1

BRD3(1) = BRD3(1) (Homo sapiens, UniProt Q15059)
Description: as §1

BRD4(1) = BRD4(1) (Homo sapiens, UniProt O60885)
Description: as §1

FALZ = FALZ (Homo sapiens, UniProt Q12830)
Description: as §1

SMARCA4 = SMARCA4 (Homo sapiens, UniProt P51532); conditions: SMARCA4
Description: as §1

BRD8(2) = BRD8(2) (Homo sapiens, UniProt Q9H0E9); conditions: BRD8(2)
Description: as §1

BRDT(1,2) = BRDT(1,2) (Homo sapiens, UniProt Q58F21); conditions: BRDT(1,2)
Description: as §1

PBRM1(5) = PBRM1(5) (Homo sapiens, UniProt Q86U86); conditions: PBRM1(5)
Description: as §1

BRD3(1,2) = BRD3(1,2) (Homo sapiens, UniProt Q15059); conditions: BRD3(1,2)
Description: as §1

SMARCA2 = SMARCA2 (Homo sapiens, UniProt P51531); conditions: SMARCA2
Description: as §1

GCN5L2 = biological target: T8, GCN5L2 (Homo sapiens, UniProt Q92830); conditions: GCN5L2
T8 sequence (Q92830 728-832 limits assumed): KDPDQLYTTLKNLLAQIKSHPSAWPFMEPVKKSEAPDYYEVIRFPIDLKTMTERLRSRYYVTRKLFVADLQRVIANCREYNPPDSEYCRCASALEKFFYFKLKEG
Description: as §1

PCAF = biological target: T9, PCAF (Homo sapiens, UniProt Q92831); conditions: PCAF
T9 sequence (Q92831 723-827 limits assumed): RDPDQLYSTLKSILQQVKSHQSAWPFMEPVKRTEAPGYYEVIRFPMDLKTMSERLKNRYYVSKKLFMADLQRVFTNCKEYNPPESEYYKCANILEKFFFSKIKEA
Description: as §1

[1] = read-out: KD (BROMOscan), sheet prints no unit (nM)

BRD3(1), sequence (Q15059 34-140 limits assumed): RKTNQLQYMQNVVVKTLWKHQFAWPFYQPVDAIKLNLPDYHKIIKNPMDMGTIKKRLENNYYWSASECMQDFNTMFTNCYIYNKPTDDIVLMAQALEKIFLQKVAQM
BRD2(2), sequence (P25440 344-453 limits assumed): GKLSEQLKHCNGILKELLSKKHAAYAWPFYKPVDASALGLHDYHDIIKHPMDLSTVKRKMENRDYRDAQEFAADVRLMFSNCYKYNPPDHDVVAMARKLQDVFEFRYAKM
SMARCA2, sequence (P51531 1-1572 isoform P51531-2): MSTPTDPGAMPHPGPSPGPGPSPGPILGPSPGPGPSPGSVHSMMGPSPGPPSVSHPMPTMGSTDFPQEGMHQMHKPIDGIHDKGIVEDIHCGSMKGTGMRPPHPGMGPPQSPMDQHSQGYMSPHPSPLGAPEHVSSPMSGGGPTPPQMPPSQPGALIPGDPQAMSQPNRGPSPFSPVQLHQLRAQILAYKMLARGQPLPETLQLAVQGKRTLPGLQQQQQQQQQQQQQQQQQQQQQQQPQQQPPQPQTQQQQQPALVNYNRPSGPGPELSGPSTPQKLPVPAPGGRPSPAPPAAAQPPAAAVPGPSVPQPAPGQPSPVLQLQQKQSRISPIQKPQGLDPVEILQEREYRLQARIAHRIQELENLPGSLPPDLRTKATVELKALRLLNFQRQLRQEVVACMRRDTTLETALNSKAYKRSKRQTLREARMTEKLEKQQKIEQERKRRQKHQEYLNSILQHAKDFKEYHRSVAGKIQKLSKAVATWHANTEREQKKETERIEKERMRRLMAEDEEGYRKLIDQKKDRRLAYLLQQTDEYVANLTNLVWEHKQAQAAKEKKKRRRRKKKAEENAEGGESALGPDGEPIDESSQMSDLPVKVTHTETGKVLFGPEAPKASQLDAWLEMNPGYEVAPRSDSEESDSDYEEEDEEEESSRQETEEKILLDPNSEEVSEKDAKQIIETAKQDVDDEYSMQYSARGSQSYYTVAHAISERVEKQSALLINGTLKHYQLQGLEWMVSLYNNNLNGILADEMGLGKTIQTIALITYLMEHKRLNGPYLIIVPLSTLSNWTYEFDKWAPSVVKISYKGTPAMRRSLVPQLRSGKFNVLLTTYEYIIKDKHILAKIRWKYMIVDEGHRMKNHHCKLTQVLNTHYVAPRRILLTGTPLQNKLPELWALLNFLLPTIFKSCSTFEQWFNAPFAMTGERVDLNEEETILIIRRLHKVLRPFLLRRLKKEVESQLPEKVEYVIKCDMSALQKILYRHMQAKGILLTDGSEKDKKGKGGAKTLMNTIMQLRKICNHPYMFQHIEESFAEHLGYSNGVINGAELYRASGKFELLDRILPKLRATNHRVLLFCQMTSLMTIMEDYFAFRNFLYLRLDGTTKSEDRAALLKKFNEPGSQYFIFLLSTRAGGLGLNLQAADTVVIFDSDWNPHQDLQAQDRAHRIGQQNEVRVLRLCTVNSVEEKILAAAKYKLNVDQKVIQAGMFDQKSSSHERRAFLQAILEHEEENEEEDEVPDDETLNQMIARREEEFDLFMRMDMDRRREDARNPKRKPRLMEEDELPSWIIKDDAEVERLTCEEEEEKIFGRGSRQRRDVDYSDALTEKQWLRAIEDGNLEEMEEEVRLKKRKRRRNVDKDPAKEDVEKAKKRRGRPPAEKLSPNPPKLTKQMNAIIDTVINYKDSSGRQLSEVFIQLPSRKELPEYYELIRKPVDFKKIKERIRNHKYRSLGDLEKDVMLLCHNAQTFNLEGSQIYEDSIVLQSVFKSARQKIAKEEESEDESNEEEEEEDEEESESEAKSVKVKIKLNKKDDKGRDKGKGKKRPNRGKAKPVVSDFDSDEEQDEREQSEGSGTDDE
BRD3(1,2), sequence (Q15059 24-416 limits assumed): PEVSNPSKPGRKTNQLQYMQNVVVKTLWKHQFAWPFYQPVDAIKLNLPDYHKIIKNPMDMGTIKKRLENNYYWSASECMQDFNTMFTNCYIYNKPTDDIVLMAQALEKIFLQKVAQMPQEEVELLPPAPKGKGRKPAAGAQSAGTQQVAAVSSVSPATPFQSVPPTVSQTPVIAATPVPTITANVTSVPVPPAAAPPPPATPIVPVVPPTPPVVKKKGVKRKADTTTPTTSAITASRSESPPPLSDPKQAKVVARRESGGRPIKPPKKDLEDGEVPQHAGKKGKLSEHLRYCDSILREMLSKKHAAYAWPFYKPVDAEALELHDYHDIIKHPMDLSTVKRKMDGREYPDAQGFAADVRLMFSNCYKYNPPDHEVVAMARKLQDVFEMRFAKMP
SMARCA4, sequence (P51532 1453-1564 limits assumed): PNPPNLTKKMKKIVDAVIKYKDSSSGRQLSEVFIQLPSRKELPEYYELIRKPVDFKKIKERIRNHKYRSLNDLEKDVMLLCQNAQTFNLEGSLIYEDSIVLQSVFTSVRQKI
PBRM1(5), sequence (Q86U86 653-763 limits assumed): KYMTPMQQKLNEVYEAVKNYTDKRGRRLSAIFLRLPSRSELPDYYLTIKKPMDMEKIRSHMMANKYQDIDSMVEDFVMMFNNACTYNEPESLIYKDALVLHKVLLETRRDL
BRD8(2), sequence (Q9H0E9 1099-1207 limits assumed): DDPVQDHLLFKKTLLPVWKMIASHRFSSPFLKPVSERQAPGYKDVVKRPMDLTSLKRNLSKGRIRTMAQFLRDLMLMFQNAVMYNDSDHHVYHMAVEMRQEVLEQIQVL

SMILES: Cc1noc(C)c1-c1ccc2c(c1)nc(CCc1ccccc1)n2CCN1CCOCC1 [CBP30-298]
- Kd (TAF1L(2); BROMOscan Gene Symbol TAF1L(2)): 17 µM
- Kd (BRD2(2); BROMOscan Gene Symbol BRD2(2)): 1.8 µM
- Kd (EP300; BROMOscan Gene Symbol EP300): 0.092 µM
- Kd (TRIM33(PHD,BRD); BROMOscan Gene Symbol TRIM33(PHD,Bromo.)): > 50000 nM
- Kd (TRIM33(PHD,BRD); [1]): > 30000 nM
- Kd (BRD1; BROMOscan Gene Symbol BRD1): 46 µM
- Kd (BAZ2A; BROMOscan Gene Symbol BAZ2A): 55 µM
- Kd (BAZ2B; BROMOscan Gene Symbol BAZ2B): > 50000 nM
- Kd (BAZ2B; [1]): > 30000 nM
- Kd (BRDT(1); BROMOscan Gene Symbol BRDT(1)): 1.8 µM
- Kd (TRIM24(PHD,BRD); BROMOscan Gene Symbol TRIM24(PHD,Bromo.)): 17 µM
- Kd (BRD3(1); BROMOscan Gene Symbol BRD3(1)): 0.96 µM
- Kd (BRD4(1); BROMOscan Gene Symbol BRD4(1)): 0.52 µM
- Kd (FALZ; BROMOscan Gene Symbol FALZ): > 50000 nM
- Kd (FALZ; [1]): > 30000 nM

SMILES: Cc1cc(=O)n(C)c2cc(N3C(=O)CC[C@H](NS(=O)(=O)CC(C)C)[C@H]3c3ccc(Cl)cc3)ccc12 [LP-99]
- Kd (TAF1L(2); BROMOscan, TAF1L(2)): > 50 µM
- Kd (SMARCA4; BROMOscan): > 50 µM
- Kd (BRD8(2); BROMOscan): > 50 µM
- Kd (BRD2(2); BROMOscan, BRD2(2)): 9.2 µM
- Kd (EP300; BROMOscan, EP300): > 50 µM
- Kd (TRIM33(PHD,BRD); BROMOscan, TRIM33(PHD,Bromo.)): > 50000 nM
- Kd (BRD1; BRD1): 22 µM
- Kd (BRDT(1,2); BROMOscan): 21 µM
- Kd (BAZ2A; BAZ2A): > 50 µM
- Kd (PBRM1(5); BROMOscan): > 50 µM
- Kd (BRD3(1,2); BROMOscan): 47 µM
- Kd (BAZ2B; BAZ2B): > 50000 nM
- Kd (BRDT(1); BROMOscan, BRDT(1)): > 50 µM
- Kd (TRIM24(PHD,BRD); BROMOscan, TRIM24(PHD,Bromo.)): > 50 µM
- Kd (SMARCA2; BROMOscan): > 50 µM
- Kd (GCN5L2; BROMOscan): > 50 µM
- Kd (BRD3(1); BROMOscan, BRD3(1)): 44 µM
- Kd (BRD4(1); BROMOscan, BRD4(1)): 46 µM
- Kd (PCAF; BROMOscan): > 50 µM
- Kd (FALZ; BROMOscan, FALZ): > 50000 nM

SMILES: COc1cc(C#N)ccc1S(=O)(=O)Nc1ccc2c(c1)cc(C)c(=O)n2C [NI 57]
- Kd (TAF1L(2); TAF1L(2)): 5.5 µM
- Kd (SMARCA4): 41 µM
- Kd (BRD8(2)): > 50 µM
- Kd (BRD2(2); BRD2(2)): > 50 µM
- Kd (EP300; EP300): 15 µM
- Kd (TRIM33(PHD,BRD); TRIM33(PHD,Bromo.)): > 50000 nM
- Kd (BRD1; BRD1): 0.046 µM
- Kd (BRDT(1,2)): > 50 µM
- Kd (BAZ2A; BAZ2A): > 50 µM
- Kd (PBRM1(5)): 11 µM
- Kd (BRD3(1,2)): 12 µM
- Kd (BAZ2B; BAZ2B): 9400 nM
- Kd (BRDT(1); BRDT(1)): 4.8 µM
- Kd (TRIM24(PHD,BRD); TRIM24(PHD,Bromo.)): 5.6 µM
- Kd (SMARCA2): > 50 µM
- Kd (GCN5L2): 4.1 µM
- Kd (BRD3(1); BRD3(1)): 7.2 µM
- Kd (BRD4(1); BRD4(1)): 3.3 µM
- Kd (PCAF): 4.2 µM
- Kd (FALZ; FALZ): 2300 nM
